# Assay results: publication PMC3693846 (Cellular and molecular neurobiology, 2013)
# Test system: L-type voltage-gated calcium channel (subtype not resolved)
# Assay type: cell-based
compound,measurement,value
"CC(C)n1cnc2c(NCCCCCCNC(=O)OC(C)(C)C)nc(NCCO)nc21 [CK59, 2-(2-Hydroxyethylamino)-6-aminohexylcarbamic acid tert-butyl ester-9-isopropylpurine]",% decrease of current at 50 μM,67.47 % decrease of current at 50 μM
